Experimental data reported in BindingDB's records for doi:10.3109/14756366.2012.680063 (Rhodes University, 2013).
Residues, ends and D or L forms follow the SMILES beside them.

Assays:
[1] = molecular target: T1, Superoxide dismutase [Cu-Zn] (Bovine, UniProt P00442); experiment: SOD Assay (Fluorimetric Analysis); conditions: pH 8; 37 °C
Protocol: SOD activity of the purified samples was determined by the SOD assay kit using (2-(4-iodophenyl)-3-(4nitrophenyl)-5-(2,4-disulphenyl)-2H-tetrazolium, monosodium salt) [WST] which is a colorimetric assay that monitors the rate of inhibition of WST to a water soluble formazan dye.

[2] = molecular target: T1, Superoxide dismutase [Cu-Zn]; experiment: SOD Assay (Kinetic Analysis)

T1 sequence (P00442 whole entry): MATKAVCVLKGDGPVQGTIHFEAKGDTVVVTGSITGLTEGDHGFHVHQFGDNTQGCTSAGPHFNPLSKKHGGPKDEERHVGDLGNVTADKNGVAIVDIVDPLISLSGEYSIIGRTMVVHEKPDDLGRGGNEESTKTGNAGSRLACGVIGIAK

Row | SMILES | Kd [1] | Ki [2]
1 | CC[C@H](C)[C@H](NC(=O)[C@H](C)NC(=O)CNC(=O)[C@H](CCCCN)NC(=O)[C@H](CC(N)=O)NC(=O)[C@H](CO)NC(=O)CN)C(=O)N[C@H](C(=O)NCC(=O)N[C@@H](CC(C)C)C(=O)N[C@@H](CCSC)C(=O)N[C@H](C(=O)NCC(=O)O)C(C)C)[C@@H](C)CC [Aβ (25-37)] (H-GSNKGAIIGLMVG-OH) | 9.38 µM | 14.4 µM
2 | CC[C@H](C)[C@H](NC(=O)[C@H](C)NC(=O)CN)C(=O)N[C@H](C(=O)NCC(=O)O)[C@@H](C)CC [Aβ (29-33)] (H-GAIIG-OH) | 15.7 µM | 13.2 µM
